Results: patent US5155109A, “3-piperazinosydnone imines, process for their preparation and their use” (Cassella Aktiengesellschaft, priority 1990, dated 1992)
Where a name gives a salt, the structure may show the parent alone.

System: spiral strips of the pulmonary artery of the guinea-pig
Experiment: Relaxation of potassium-depolarised, CaCl2-contracted pulmonary artery spiral strips (modified method of Godfraind and Kaba and of Schuman et al.)
Conditions: for IC50: Cavia porcellus, 40 mmol/l potassium depolarised, contraction induced by 0.5 mmol/l CaCl2, cumulative addition in 1/2 log 10 steps, average of 4 to 6 vessel strips, read-out: IC50 (concentration of the test substance which inhibits the contraction by 50%); for Duration of action: time needed after addition of the test substance until the starting value is obtained again
Description: The pharmacological action of the compounds of the formula I was determined by a modified method of Godfraind and Kaba (Arch. Int. Pharmacodyn. Ther. 196, (Suppl) 35 to 49, 1972) and of Schuman et al. (Naunyn-Schmiedeberg,s Arch. Pharmacol. 289, 409 to 418, 1975). In this connection, spiral strips of the pulmonary artery of the guinea-pig are depolarised with 40 mmol/1 of potassium after equilibration in calcium-free Tyrode solution. An addition of 0.5 mmol/1 of CaCl2 then induces a contraction. The relaxing action of the test substance is determined by cumulative addition in 1/2 log 10 stepped concentrations. From the concentration-effect curve (abscissa: -log mol/1 of test substance, ordinate: % inhibition of the maximum contraction, average value of 4 to 6 vessel strips), the concentration of the test substance is determined which inhibits the contraction by 50% (=IC50, mol/1). The duration of action of the test substance is given by the time which is needed after the addition of the test substance until the starting value is obtained again. […] On the other hand, the similarly active compound SIN-1 is clearly surpassed by the compounds according to the invention with respect to its duration of action.

SMILES | IC50 | Duration of action
Cc1ccc(S(=O)(=O)N2CCN([n+]3cc(=N)o[n-]3)C(C)(C)C2)cc1.Cl [Example 2, 3-(2,2-Dimethyl-4-tosylpiperazin-1-yl)sydnone imine hydrochloride] | 650 nM | 220 min
CN(C)S(=O)(=O)N1CCN([n+]2cc(=N)o[n-]2)C(C)(C)C1 [Example 3, 3-(2,2-Dimethyl-4-dimthylaminosulphonylpiperazin-1-yl)sydnone imine hydrochloride] | 2500 nM | 200 min
CCOC(=O)[N-]c1cn(N2CCOCC2)n[o+]1 [Molsidomine, NEthoxycarbonyl-3-morpholinosydnone imine, reference compound] | 300000 nM | 100 min
CC1(C)CN(S(C)(=O)=O)CCN1[n+]1cc(=N)o[n-]1.Cl [Example 1, 3-(2,2-Dimethyl-4-methanesulphonylpiperazin-1-yl)sydnone imine hydrochloride] | 1900 nM | 200 min
Cl.N=c1c[n+](N2CCOCC2)[n-]o1 [SIN-1, 3Morpholinosydnone imine hydrochloride, reference compound] | 1000 nM | 80 min
CC(C)C(=O)N=c1c[n+](N2CCN(S(C)(=O)=O)CC2(C)C)[n-]o1 [CH3, drawing 12] | 3000 nM | 210 min
